Laboratory results reported in patent publication US20250296938A1, “Compounds that Interact with the Ras Superfamily for the Treatment of Cancers, Inflammatory Diseases, Rasopathies, and Fibrotic Disease” (SHY Therapeutics, LLC, priority 2018, published 2025).

Key:
MAPK phosphorylation = assay: MAPK cell-based phosphorylation assay (ELISA or Western), PANC-1; settings: Homo sapiens; 10 μM, 6 hours, EGF stimulation, PANC-1
Method: Cell lines: Tumor-derived pancreatic cancer cell line PANC-1 was purchased from ATCC and were and grown in DMEM-High Glucose supplemented with penicillin (100 U/mL), streptomycin (100 μg/mL), and 10% heat-inactivated FBS at 37° C. in a humidified incubator with 5% CO2.
Method: Cells were plated at 7500 cells/well density in a 96-well plate, allowed 3 hours to adhere to the plate, then starved in DMEM plus 0.5% FBS overnight. The small molecules to be tested were added to the cells in the final concentration of 10 μM in the presence of 0.3% DMSO for 6 hours incubation at 37° C. For IC50 value determination, serial dilutions of compounds were added to cells under the same conditions. Next, cells were stimulated with 1.5 ng/mL EGF for 15 minutes followed by cell fixation with 4% formaldehyde in PBS at room temperature for 20 minutes. Cell-direct ELISA determined phosphorylation level of MAPK.
Cell-direct ELISA: For each well, cells were permeabilized with 0.1% PBS-Triton X-100, quenched with 0.06% H2O2 in 0.1% PBS-Triton X-100, and probed with anti-phospho-MAPK antibodies (R&D Systems) followed by HRP-conjugated secondary antibody (Jackson Immunoresearch, West Grove, PA). Next, a 50 μM solution of the fluorescent substrate AmpliFlu Red (Sigma) was added and incubated at RT for 20 minutes. At the end of the incubation time, phosphorylation level of MAPK was determined by measuring fluorescence at 595 nm using SpectraMax M3 plate reader (Molecular Devices).
Cell lines: Human NSCLC cells NCI-H1975 and NCI-H1299, and tumor-derived pancreatic cancer cell lines Panc-1, MIA-PaCa-2, and BxPC3, were all purchased from American Type Culture Collection and grown in complete RPMI medium (BxPC3, NCI-H1975 and NCI-H1299) or DMEM-High Glucose (Panc1 and MIA-PaCa-2), supplemented with penicillin (100 U/mL), streptomycin (100 μg/mL), and 10% heat-inactivated FBS at 37° C. in a humidified incubator with 5% CO2.
(§1) Method: Cells were plated at 350000 cells/well density in a 12-well plate, allowed 3 hours to adhere to the plate, then starved in the appropriate medium in the presence of 0.5% FBS overnight. The small molecules to be tested were added to the cells in the final concentration of 10 μM in the presence of 0.3% DMSO for 6 hours incubation at 37° C. For IC50 value determination, serial dilutions of compounds were added to cells under the same conditions. Next, cells were stimulated with 1.5 ng/ml EGF for 15 minutes then cells were lysed with lysis buffer containing 1% Triton X-100, EDTA, and Halt™ Protease & Phosphatase Inhibitor Cocktail (Thermo Scientific). Protein concentration was assessed by BCA protein assay (Thermo Scientific). Phosphorylation level of MAPK was determined by western blot.
(§2) Western blot protocol: Equal amounts of protein (15-50 μg) were separated by SDS-PAGE and transferred to nitrocellulose membranes (Invitrogen by Thermo Fisher Scientific). The membrane was stained with Ponceau S Stain (Boston BioProducts) to verify uniform protein loading. Membranes were blocked with 10% milk and phosphorylation levels of MAPK were assessed by incubating overnight at 4° C. with anti-phospho-p44/42 (Thr202/Tyr204) antibody (Cell Signaling) followed by HRP-conjugated secondary antibody (Jackson Immunoresearch, West Grove, PA). Bands were incubated in Amersham ECL Prime Western Blotting Detection Reagent (GE Healthcare) and visualized using the ChemiDoc MP imaging system (Bio-Rad).

AKT phosphorylation = assay: Western AKT cell-based phosphorylation assay, PANC-1; settings: Homo sapiens, 6 hours, EGF stimulation, PANC-1
Method: Human tumor-derived pancreatic cancer cell line Panc-1 was purchased from American Type Culture Collection and grown in complete DMEM-High Glucose supplemented with penicillin (100 U/mL), streptomycin (100 μg/mL), and 10% heat-inactivated FBS at 37° C. in a humidified incubator with 5% CO2.
as §1, with “C.” for “C. For IC50 value determination, serial dilutions of compounds were added to cells under the same conditions.”, “Akt” for “MAPK”
as §2, with “Akt” for “MAPK”, “anti-phospho-Akt (Ser473)” for “anti-phospho-p44/42 (Thr202/Tyr204)”

Structure (SMILES)	inhibition at 10 µM (MAPK phosphorylation)	inhibition at 10 µM (AKT phosphorylation)
COC1CCN(c2nc(-c3nccn3C)nc3sc(-c4ccnc(N(C)C)c4)c(-c4ccccc4)c23)C1 (stereo not drawn) [drawing 440]	76 to 100%	0%
COC1CCN(c2nc(-c3nccn3C)nc3sc(Br)c(-c4ccccc4)c23)C1 (stereo not drawn) [drawing 441]	26 to 50%	0%
COc1ccc(-c2c(-c3cccc(OC)c3F)sc3nc(-c4nccn4C)nc(N4CCC(OC)C4)c23)cc1 (stereo not drawn) [drawing 442]	0%	0%
COCC1CN(c2nc(-c3nccn3C)nc3sc(-c4cccc(OC)c4F)c(-c4ccc(OC)cc4)c23)C1 [drawing 443]	76 to 100%	0%
COc1cccc(-c2sc3nc(-c4nccn4C)nc(N4CCC(OC)C4)c3c2-c2ccccc2)c1F (stereo not drawn) [drawing 444]	76 to 100%	76 to 100%
COc1c(O)nc(-c2ccccn2)nc1Oc1cnn(C)c1 [drawing 445]	1 to 25%	0%
COc1c(O)nc(-c2ccccn2)nc1Oc1ccc2ncccc2c1 [drawing 446]	0%	0%
COc1c(O)nc(-c2ccccn2)nc1Oc1cccnc1 [drawing 447]	0%	0%
COc1cccc(Oc2nc(-c3ccccn3)nc(O)c2OC)c1 [drawing 448]	0%	0%
COc1ccc(Oc2nc(-c3ccccn3)nc(O)c2OC)cc1 [drawing 449]	0%	0%
COCCc1ccc(Oc2nc(-c3ccccn3)nc(O)c2OC)cc1 [drawing 450]	0%	0%
COc1c(O)nc(-c2ccccn2)nc1Oc1ccccc1 [drawing 451]	0%	0%
O=C(c1nc(-c2ccccn2)nc(O)c1O)N1CCc2ccccc2C1 [drawing 452]	0%	0%
O=C(c1nc(-c2ccccn2)nc(O)c1O)N1CCOCC1 [drawing 453]	0%	0%
CN(Cc1ccccc1)C(=O)c1nc(-c2ccccn2)nc(O)c1O [drawing 454]	0%	0%
O=C(NCc1ccccc1)c1nc(-c2ccccn2)nc(O)c1O [drawing 455]	1 to 25%	0%
O=C(c1nc(-c2ccccn2)nc(O)c1O)N1CCCC1 [drawing 456]	0%	0%
O=C(NC1CCCC1)c1nc(-c2ccccn2)nc(O)c1O [drawing 457]	0%	0%
CC(C)CN(C)C(=O)c1nc(-c2ccccn2)nc(O)c1O [drawing 458]	0%	0%
CC(C)CNC(=O)c1nc(-c2ccccn2)nc(O)c1O [drawing 459]	0%	0%
COCCN(C)C(=O)c1nc(-c2ccccn2)nc(O)c1O [drawing 460]	0%	0%
